Usually IC50 stands for the midpoint of a concentration-inhibition curve.

The target of the assay is T1, Aurora2 (Aurora-A) (Homo sapiens, UniProt O14965).
T1 construct: Aurora-A: the full length recombinant protein including an N-terminal poly-histidine tail has been expressed in E. coli; poly-histidine (N); made in house; host or cells: E. coli
T1 sequence (O14965 1-403): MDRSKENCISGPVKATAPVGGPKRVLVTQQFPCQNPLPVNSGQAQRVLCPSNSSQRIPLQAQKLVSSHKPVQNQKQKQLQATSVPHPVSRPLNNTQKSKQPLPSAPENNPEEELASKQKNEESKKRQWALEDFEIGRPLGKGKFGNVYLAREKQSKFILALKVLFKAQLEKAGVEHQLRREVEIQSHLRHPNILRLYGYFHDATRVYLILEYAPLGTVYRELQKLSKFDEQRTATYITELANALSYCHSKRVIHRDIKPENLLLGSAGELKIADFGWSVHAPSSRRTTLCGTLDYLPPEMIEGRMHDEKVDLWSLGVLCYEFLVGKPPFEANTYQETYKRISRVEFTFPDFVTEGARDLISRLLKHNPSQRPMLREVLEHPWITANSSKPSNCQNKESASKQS
Kind of assay: Aurora 2 (Aurora A) kinase radioactivity scintillation assay using nickel chelate Flash plates. Conditions: 10 nM Aurora-A, 500 nM NuMA substrate, 1 μM ATP with [33P] ATP, 10 mM MgCl2, 30 minutes, 37° C. The format is biochemical. The method, then:
Aurora 1 and 2 (Respectively. Aurora B and A)
The inhibitory effect of compounds with respect to the Aurora 1 and 2 kinases is determined with a radioactivity scintillation assay using nickel chelate.
The kinase activity of Aurora is measured by the phosphorylation of NuMA-histidine substrate in the presence of radiolabelled ATP ([^33P] ATP) using 96 well Flash plates where the nickel-chelate is linked to the surface of the microplate. The amount of ^33P incorporated to the substrate NuMA is proportional to the aurora activity.
The Flash plates used are nickel-chelate 96 well plates (Perkin Elmer, model SMP107).
The products to be evaluated are incubated in a 100 μl reaction volume per well in the presence of 10 nM of Aurora-B or Aurora-A, 500 nM of NuMA substrate in the following buffer: 50 mM of NaCl, 5 mM MgCl2, (Aurora-B) or 10 mM MgCl2 (Aurora-A) and 1 mM of DTT at 37° C.
80 μL of enzyme/substrate incubation buffer is distributed in each well, followed by 10 μL of solution of compound to be measured with various concentrations. The reaction is started by adding 1 μM of ATP (final concentration) containing 0.2 μCi of [^33P] ATP (10 μL). After 30 minutes of incubation the reaction is stopped by removal of the reaction mixture and each well is washed twice with 300 μl of buffer Tris/HCl. The radioactivity is measured in each well using a Packard Top count scintillation counter instrument.
The enzymatic activity is expressed as counts per minute obtained in 30 minutes after subtraction of the background noise (reaction medium without enzyme). The measurement is expressed as percentage of inhibition of Aurora activity versus the control. To generate IC50 values, compounds of the invention are tested at different concentration and the percentage of inhibition are plotted as function of compound concentration, IC50s are calculated using the Xlfit 4 curve fitting software.
As to `Cc1cc(C2C3=C(CNCC3=O)Nc3n[nH]cc32)ccc1O` (centres unmarked) [Example 1, 4-(4-Hydroxy-3-methyl-phenyl)-2,4,6,7,8,9-hexahydro-pyrazolo[3,4-b]-1,7-naphthyridin-5-one; compound with trifluoro-acetic acid], the IC50 worked out at 7450 nM.
Then `CC(C)(C)c1ccc(Oc2cccc(C3C4=C(CNCC4=O)Nc4n[nH]cc43)c2)cc1` (centres unmarked) [Example 8, 4-[3-(4-tert-Butyl-phenoxy)-phenyl]-2,4,6,7,8,9-hexahydro-pyrazolo[3,4-b]-1,7-naphthyridin-5-one; compound with trifluoro-acetic acid], with 696 nM; and `Cc1ccc(Oc2cccc(C3C4=C(CNCC4=O)Nc4n[nH]cc43)c2)cc1` (centres unmarked) [Example 11, 4-(3-p-Tolyloxy-phenyl)-2,4,6,7,8,9-hexahydro-pyrazolo[3,4-b]-1,7-naphthyridin-5-one; compound with trifluoro-acetic acid], with 1130 nM.
Then `O=C1CNCC2=C1C(c1ccc(-c3ccc(Cl)cc3)o1)c1c[nH]nc1N2` (centres unmarked) [Example 16, 4-[5-(4-Chloro-phenyl)-furan-2-yl]-2,4,6,7,8,9-hexahydro-pyrazolo[3,4-b]-1,7-naphthyridin-5-one; compound with trifluoro-acetic acid], with 1080 nM.
For `O=C1CNCC2=C1C(c1ccc(-c3ccccc3C(F)(F)F)o1)c1c[nH]nc1N2` (centres unmarked) [Example 17, 4-[5-(2-trifluoromethyl-phenyl)-furan-2-yl]-2,4,6,7,8,9-hexahydro-pyrazolo[3,4-b]-1,7-naphthyridin-5-one; compound with trifluoro-acetic acid], the 50% inhibitory concentration (IC50) turned out to be 888 nM.
On to `O=C1CNCC2=C1C(c1ccc(-c3cccc(C(F)(F)F)c3)o1)c1c[nH]nc1N2` (centres unmarked) [Example 18, 4-[5-(3-trifluoromethyl-phenyl)-furan-2-yl]-2,4,6,7,8,9-hexahydro-pyrazolo[3,4-b]-1,7-naphthyridin-5-one; compound with trifluoro-acetic acid], for which the IC50 was found to be 2150 nM.
Then `O=C1CNCC2=C1C(c1ccc(COc3ccc(Cl)c(Cl)c3)o1)c1c[nH]nc1N2` (centres unmarked) [Example 19, 4-[5-(3,4-Dichloro-phenoxymethyl)-furan-2-yl]-2,4,6,7,8,9-hexahydro-pyrazolo[3,4-b]-1,7-naphthyridin-5-one; compound with trifluoro-acetic acid], with 8390 nM; and `O=C1CCCC2=C1C(c1cccc(Oc3ccc(Cl)cc3)c1)c1c[nH]nc1N2` (centres unmarked) [Example 22, 4-[3-(4-Chloro-phenoxy)-phenyl]-2,4,6,7,8,9-hexahydro-pyrazolo[3,4-b]quinolin-5-one; compound with trifluoro-acetic acid], with 2320 nM.
With `O=C1CCCC2=C1C(c1ccc(-c3cccc(Cl)c3)o1)c1c[nH]nc1N2` (centres unmarked) [Example 23] the figure was 2410 nM; with `O=C1CCCC2=C1C(c1ccc(COc3ccc(Cl)c(Cl)c3)o1)c1c[nH]nc1N2` (centres unmarked) [Example 24, 4-[5-(3,4-Dichloro-phenoxymethyl)-furan-2-yl]-2,4,6,7,8,9-hexahydro-pyrazolo[3,4-b]quinolin-5-one; compound with trifluoro-acetic acid], 291 nM; with `O=C1CCCC2=C1C(c1ccc(-c3cccc(C(F)(F)F)c3)o1)c1c[nH]nc1N2` (centres unmarked) [Example 25, 4-[5-(3-Trifluoromethyl-phenyl)-furan-2-yl]-2,4,6,7,8,9-hexahydro-pyrazolo[3,4-b]quinolin-5-one; compound with trifluoro-acetic acid], 3070 nM.
Then `O=C1CCCC2=C1C(c1ccc(-c3ccccc3C(F)(F)F)o1)c1c[nH]nc1N2` (centres unmarked) [Example 26, 4-[5-(2-Trifluoromethyl-phenyl)-furan-2-yl]-2,4,6,7,8,9-hexahydro-pyrazolo[3,4-b]quinolin-5-one; compound with trifluoro-acetic acid], with 1030 nM; and `O=C1CCCC2=C1C(c1ccc(-c3ccc(Cl)cc3)o1)c1c[nH]nc1N2` (centres unmarked) [Example 27, 4-[5-(4-Chloro-phenyl)-furan-2-yl]-2,4,6,7,8,9-hexahydro-pyrazolo[3,4-b]quinolin-5-one; compound with trifluoro-acetic acid], with 4920 nM; and `Cn1c2c(c(=O)n(C)c1=O)C(c1cccc(Oc3ccc(Cl)cc3)c1)c1c[nH]nc1N2` (centres unmarked) [Example 43, 4-[3-(4-Chloro-phenoxy)-phenyl]-6,8-dimethyl-2,4,8,9-tetrahydro-1,2,6,8,9-pentaaza-cyclopenta[b]naphthalene-5,7-dione; compound with trifluoro-acetic acid], with 9700 nM.
Turning to `O=C1CN(CC(O)CN2CCOCC2)CC2=C1C(c1cccc(Oc3ccc(Cl)cc3)c1)c1c[nH]nc1N2` (centres unmarked) [Example 50, 4-[3-(4-Chloro-phenoxy)-phenyl]-7-(2-hydroxy-3-morpholin-4-yl-propyl)-2,4,6,7,8,9-hexahydro-pyrazolo[3,4-b]-1,7-naphthyridin-5-one; compound with trifluoro-acetic acid], the half-inhibitory concentration (IC50) is 227 nM.
Then `Cc1noc(C)c1C(=O)N1CC(=O)C2=C(C1)Nc1n[nH]cc1C2c1cccc(Oc2ccc(Cl)cc2)c1` (centres unmarked) [Example 53, 4-[3-(4-Chloro-phenoxy)-phenyl]-7-(3,5-dimethyl-isoxazole-4-carbonyl)-2,4,6,7,8,9-hexahydro-pyrazolo[3,4-b]-1,7-naphthyridin-5-one; compound with trifluoro-acetic acid], with 7370 nM; and `O=C1CN(C(=O)c2ccno2)CC2=C1C(c1cccc(Oc3ccc(Cl)cc3)c1)c1c[nH]nc1N2` (centres unmarked) [Example 54, 4-[3-(4-Chloro-phenoxy)-phenyl]-7-(isoxazole-5-carbonyl)-2,4,6,7,8,9-hexahydro-pyrazolo[3,4-b]-1,7-naphthyridin-5-one; compound with trifluoro-acetic acid], with 6100 nM; and `Cc1nnsc1C(=O)N1CC(=O)C2=C(C1)Nc1n[nH]cc1C2c1cccc(Oc2ccc(Cl)cc2)c1` (centres unmarked) [Example 55, 4-[3-(4-Chloro-phenoxy)-phenyl]-7-(4-methyl-[1,2,3]thiadiazole-5-carbonyl)-2,4,6,7,8,9-hexahydro-pyrazolo[3,4-b]-1,7-naphthyridin-5-one; compound with trifluoro-acetic acid], with 7200 nM.
As to `O=C1CNCC2=C1C(c1cccc(C(=O)NCc3ccc(OC(F)(F)F)cc3)c1)c1c[nH]nc1N2` (centres unmarked) [Example 60, 3-(5-Oxo-2,4,6,7,8,9-hexahydro-pyrazolo[3,4b]-1,7-naphthyridin-4-yl)-N-(4-trifluoromethoxy-benzyl)-benzamide; compound with trifluoro-acetic acid], the half-maximal inhibitory concentration (IC50) amounted to 6500 nM.
With `O=C1CNCC2=C1C(c1cccc(C(=O)Nc3ccc(OC(F)(F)F)cc3)c1)c1c[nH]nc1N2` (centres unmarked) [Example 63, 3-(5-Oxo-2,4,6,7,8,9-hexahydro-pyrazolo[3,4b]-1,7-naphthyridin-4-yl)-N-(4-trifluoromethoxy-phenyl)-benzamide; compound with trifluoro-acetic acid], the IC50 stood at 3300 nM.
With `O=C1CNCC2=C1C(c1cccc(C(=O)Nc3cccc(OC(F)(F)F)c3)c1)c1c[nH]nc1N2` (centres unmarked) [Example 64, 3-(5-Oxo-2,4,6,7,8,9-hexahydro-pyrazolo[3,4b]-1,7-naphthyridin-4-yl)-N-(3-trifluoromethoxy-phenyl)-benzamide; compound with trifluoro-acetic acid] the figure was 4100 nM.
As to `O=C1CNCC2=C1C(c1cccc(NC(=O)c3ccc(Cl)cc3)c1)c1c[nH]nc1N2` (centres unmarked) [Example 65, 4-Chloro-N-[3-(5-Oxo-2,4,6,7,8,9-hexahydro-pyrazolo[3,4b]-1,7-naphthyridin-4-yl)-phenyl]-benzamide; compound with trifluoro-acetic acid], the IC50 came out at 630 nM.
Then `O=C(Nc1ccc(Cl)cc1)Nc1cccc(C2C3=C(CNCC3=O)Nc3n[nH]cc32)c1` (centres unmarked) [Example 67, 1-(4-Chloro-phenyl)-3-[3-(5-Oxo-2,4,6,7,8,9-hexahydro-pyrazolo[3,4b]-1,7-naphthyridin-4-yl)-phenyl]-urea; compound with trifluoro-acetic acid], with 2000 nM.
